Experiments:
MM1.S cells [1] = test: TUNEL apoptosis detection in MM1.S cells; type: cell-based, human; settings: 10 μM, after 24 hours
Experimental: (§1) FIG. 9A-C: 9A. […] MM1.S cells were cultured with 10 μM of p62-ZZ antagonist for the indicated time, and then cell lysates were collected. Caspase 9, 7 and 3 were detected by Western blotting using anti-caspase 9, 7 and 3 specific antibodies (Cell Signaling). FIG. 9B. Detection of Apoptosis using the TUNEL reaction with MM1.S cells treated with p62-ZZ antagonist. MM1.S cells were treated with 10/μM of p62-ZZ antagonist #3 for 24 hours and then the cells were collected and mounted on glass slides using the cytospin procedure. Terminal deoxynucleotidyl transferase nick end labeling (TUNEL) reactions were conducted using an In Situ Cell Death Detection Kit (Roche) according to the manufacturer's instructions. The stained cells were analyzed using a fluorescence microscope equipped with standard green filter. FIG. 9C. The p62-ZZ antagonist induced Reactive Oxygen Species in MM1.S cells. MM1.S cells were treated with 10 μM of p62-ZZ antagonist #3 for 6 hours. Cells were collected and stained for Reactive Oxygen Species (ROS) using a Total ROS detection kit (Enzo) according to the manufacturer's instructions. The expression of apoptosis markers in p62-ZZ antagonist treated on 25 MM cells was determined to determine the mechanism action of this antagonist.

human OCL formation = test: Human osteoclast (OCL) formation; type: cell-based; settings: various concentrations, 2 weeks, 1 ng/ml TNFα
Experimental: FIG. 7A-C: 7A. CFU-Blast colony formation. Human CD34(+) cells were cultured with p62-ZZ inhibitor #3 and 1 ng/ml of rhIL-3 IL-6 and SCF for 7 days. Data are shown as the mean±SD (n=5). FIG. 7B. Human OCL formation. Non-adherent mononuclear cells (2.5×10^7 cells/10-cm dish) derived from human bone marrow samples were cultured in α-MEM containing 10% FCS, 100 pg/ml recombinant human GM-CSF(R & D) for 7 days. Then the cells were collected and plated (cell density is 1.0×10^6 cells/nil) in α-MEM containing 20% horse serum with 1 ng/ml TNFα. Half-media changes were performed twice a week containing various concentrations of the p62-ZZ inhibitor #3. The cultures were incubated for a total of 2 weeks at 37° C. with 5% CO2 and 95% humidity. The osteoclasts were stained with the 23C6 antibody which recognizes CD51/61. Data are shown as the mean±SD (n=5). *P<0.01 compared to vehicle treated cultures. 7C. OCL formation by wild type and p62−/− mouse osteoclast precursors. Data is shown as the mean±SD (n=4). *: P<0.01 compared to no-inhibitor cultures. Whether p62-ZZ inhibitor #3 affects hematopoesis since osteoclast precursors are derived from hematopoietic cells was examined. […] Colonies were scored after 7 days of culture using an inverted microscope.

phospho-PKCζ = test: TNF-α induced PKCζ phosphorylation in MM1.S cells; type: cell-based, human; settings: pre-treated 3 hours
Experimental: Compound 3 was tested for its capacity to block MM-stimulated signaling in marrow stromal cells, thereby resulting in less bone destruction and MM growth. The effects of the compound 3 on GFP-labeled MM1.S myeloma cell growth with/without stromal cells, IL-6 and VCAM-1 expression on stromal cells induced by TNF-α and OCL formation, and TNF-α induced PKCζ phosphorylation, the specific kinase enzyme activated p62-ZZ, were examined. GFP-labeled MM1.S myeloma cells or normal human CFU-GM, a source of OCL precursors, were then co-cultured with human stromal cells with the p62-ZZ inhibitor. […] VCAM-1 expression and IL-6 production induced by TNF-α on stromal cells was blocked by 30% and 90% respectively compared to vehicle levels. Furthermore, TNF-α induced PKC, phosphorylation blocked was in stromal cells and MM1.S when pre-treated with this p62-ZZ inhibitory compound for 3 hours.

[2] = system: p62 knockout OCL precursors; test: OCL formation by p62-/- mouse osteoclast precursors, TRACP stain; type: cell-based; settings: 7 days, 50 ng/ml TNFα
Experimental: FIG. 7A-C: 7A. CFU-Blast colony formation. Human CD34(+) cells were cultured with p62-ZZ inhibitor #3 and 1 ng/ml of rhIL-3 IL-6 and SCF for 7 days. Data are shown as the mean±SD (n=5). FIG. 7B. Human OCL formation. Non-adherent mononuclear cells (2.5×10^7 cells/10-cm dish) derived from human bone marrow samples were cultured in α-MEM containing 10% FCS, 100 pg/ml recombinant human GM-CSF(R & D) for 7 days. Then the cells were collected and plated (cell density is 1.0×10^6 cells/nil) in α-MEM containing 20% horse serum with 1 ng/ml TNFα. Half-media changes were performed twice a week containing various concentrations of the p62-ZZ inhibitor #3. The cultures were incubated for a total of 2 weeks at 37° C. with 5% CO2 and 95% humidity. The osteoclasts were stained with the 23C6 antibody which recognizes CD51/61. Data are shown as the mean±SD (n=5). *P<0.01 compared to vehicle treated cultures. 7C. OCL formation by wild type and p62−/− mouse osteoclast precursors. Data is shown as the mean±SD (n=4). *: P<0.01 compared to no-inhibitor cultures. The effects of p62-ZZ inhibitor #3 on osteoclast formation by p62^−/− OCL precursors were examined to determine the specificity of the effects of the p62-ZZ inhibitor #3 on osteoclast precursors. CDIIb(+) mononuclear cells from wild type and p62″/_mice were used. […] OCLs were scored as TRAP positive cells containing 3 or more nuclei. […]

MM1.S cells [3] = test: Caspase 9, 7 and 3 cleavage in MM1.S cells, Western blot; type: cell-based, human; settings: 10 μM, after 16 hours
Experimental: as §1

OCCNCc1ccc(OCc2ccccc2)c(OCc2ccccc2)c1 [Compound 3, 2-[[3,4-bis(phenylmethoxy)phenyl]methylamino]ethanol]
TUNEL staining of cells (MM1.S cells [1]): positive TUNEL staining
human OCL formation (human OCL formation): blocked human OCL formation dose dependently
TNF-α induced PKCζ phosphorylation in MM1.S (phospho-PKCζ): blocked
OCL formation by p62 knockout OCL precursors [2]: did not block
cleavage of caspase 9, 7 and 3 (MM1.S cells [3]): induced cleavage

— patent publication US11739053B2, “P62-ZZ chemical inhibitor” (ID4PHARMA, LLC, priority 2011, dated 2023)
